Results reported in patent US4544512A, “Tridecyloxy- or tetradecyloxy-propane derivatives” (Takeda Chemical Industries, Ltd., priority 1980, dated 1985).
Converted amounts (≈) assume the structure as drawn.

Tests used:
[1] = system: spontaneous myeloid leukemia M1 cells; test: Growth inhibition of cultured spontaneous mouse myeloid leukemia M1 cells (GD50); type: cell-based, mice (SL-strain); conditions: for IC50: Mus musculus, 72 h, 3 days, 37° C., Trypan Blue dye-exclusion, M1 Resistant clone; for B/A (GD50 normal bone marrow cells / GD50 M1 cells): ratio of GD50 values, 4320 min
Description: (§1) BALB/c mice at a concentration of 1 μg/ml (Cancer Res. 39, pp. 4681-4686 (1979)). The present inventors conducted comparative tests between octadecyl phospholipid and the corresponding tridecyl compound as well as tetradecyl compound on the activity (GD50) to inhibit the multiplication of spontaneous myeloid leukemia cells M1 in mice. […] The effect on the corresponding normal cells, i.e. on the myeloid cells of normal mice, is far weaker in the tetradecyl compounds. Therefore, in view of the balance of the inhibiting activity against multiplication of tumor cells and the safety (Chemotherapy Coefficient), it can be said that tetradecyl phospholipid is preferable to octadecyl phospholipid.
(§2) By employing Eagle's minimum essential medium supplemented with 10% heat-inactivated calf serum, incubation of spontaneous myeloid leukemia M1 cells (Resistant clone) harvested from mice (SL-strain) and normal bone marrow cells of mice of the same strain was conducted, in the presence or absence of the test compound in various concentrations, in a humified CO2 incubator at 37° C. for 3 days. The number of viable cells was determined by the Trypan Blue Stain dye-exclusion test. The concentration of the tested compound for 50% inhibiting the proliferation of M1 cells or normal bone marrow cells (GD50) was determined, and the result was shown in Table 1.

normal bone marrow cells = test: Growth inhibition of normal mouse bone marrow cells (GD50); type: cell-based, mice (SL-strain); conditions: Bone marrow cell, 72 h, 3 days, 37° C., Trypan Blue dye-exclusion, read-out: GD50 Normal mouse bone marrow cells (B)
Description: as §1, §2

Compound	IC50 [1]	B/A (GD50 normal bone marrow cells / GD50 M1 cells) [1]	IC50 (normal bone marrow cells)
CCCCCCCCCCCCCCCCCCOCC(COP(=O)([O-])OCC[N+](C)(C)C)OC (stereo not drawn) [drawing 17, reference compound]	0.6 µg/mL (≈ 1.15 µM)	25	15 µg/mL (≈ 28.6 µM)
CCCCCCCCCCCCCCOCC(COP(=O)([O-])OCC[N+](C)(C)C)OC (stereo not drawn) [drawing 18]	1.2 µg/mL (≈ 2.57 µM)	33	40 µg/mL (≈ 85.5 µM)
